Experimental data published in PMC4789767, “Application of linker technique to trap transiently interacting protein complexes for structural studies” (Journal of Biological Methods, 2016).

Assays:
C-lobe of CaM = conditions: previous findings; ref [34]-[36]; cited from earlier work
Text: The Gly-linker strategy has been previously used to stabilize various protein complexes for structural studies. We have adopted this procedure to determine the crystal structure of CaM in complex with two of its intrinsically unstructured binding partners, Nm and Ng, and further validated the findings in vitro and in vivo [19]. We identified the MBR of Nm and Ng that interacted with CaM using ITC experiments using various peptide lengths of Nm/Ng. […] We employed known s ...

CaM = assay: ITC: binding of MBR (IQ motif) peptides to CaM; conditions: VP-ITC, 25°C, 10 µM CaM in cell, 150 µM IQ peptide in syringe, Buffer A: 20 mM imidazole pH 8.0, 100 mM NaCl, 2 mM EGTA, in words, Fig. 3B vs 3A
Method: Different lengths of Nm and Ng IQ motif peptides were commercially synthesized and obtained from GL BiochemLtd (Shanghai, China). Stock solutions of 1 mM of Nm/Ng IQ peptides were prepared by dissolving the appropriate amount of peptide in 20 mM imidazole pH 8.0, 100 mM NaCl and 2 mM EGTA (Buffer A). After mixing, the peptide stock solutions were stored at 4°C to ensure complete peptide solubility. The choice of buffer is based on obtaining maximum solubility of the peptides. NOTE: Synthetically derived peptides should be verified for solubility when dissolved in a buffer of interest. Sometimes preparing high concentrations of peptide stock solution may result in precipitation. Lower concentrations of stock solutions can be prepared to avoid this problem.
• 1. ITC assay: Identification of MBR (minimum binding region) from Nm and Ng. • 1.1. Wildtype (WT) CaM, Nm and Ng are purified, as described previously. • 1.2. Prepare 10 µM of full length Nm/Ng and 150 µM of CaM in Buffer A (Recipes). The Schematic representation of the ITC experimental setup is depicted in Figure 2A. • 1.3. Degas all solutions for 10–20 min using a vacuum pump and centrifuge in order to avoid bubble formation in the sample cell during the experiment. • 1.4. […]

Row | Substance | interaction site on CaM (C-lobe of CaM) | binding with CaM compared with full length Nm (CaM)
1 | Nm: Full-length Neuromodulin (accession no NP_032109), intrinsically disordered neuron-specific substrate protein | interacted with the C-lobe of CaM | –
2 | Ng: Full-length Neurogranin (accession no NP_071312), intrinsically disordered neuron-specific substrate protein | interacted with the C-lobe of CaM | –
3 | Minimum Binding Region (MBR) peptide of Nm: Optimized minimum binding region peptide (IQ motif) of Neuromodulin; commercially synthesized | – | mimics full length Nm in terms of binding with CaM
